In PubChem BioAssay AID720495 (Broad Institute, 2013):
Inconclusive results are not listed. Active and inactive are the calls of the source. No rule for the calls is given here.

biological target: Protein AF-9 (Homo sapiens) (UniProt P42568); assay: inhibitors of AF4-AF9 protein interaction, dose response, biochemical, cherry-picked samples, plate reader (AID 720495); conditions: biochemical protein-protein interaction assay
Sequence (P42568 whole entry, looked up): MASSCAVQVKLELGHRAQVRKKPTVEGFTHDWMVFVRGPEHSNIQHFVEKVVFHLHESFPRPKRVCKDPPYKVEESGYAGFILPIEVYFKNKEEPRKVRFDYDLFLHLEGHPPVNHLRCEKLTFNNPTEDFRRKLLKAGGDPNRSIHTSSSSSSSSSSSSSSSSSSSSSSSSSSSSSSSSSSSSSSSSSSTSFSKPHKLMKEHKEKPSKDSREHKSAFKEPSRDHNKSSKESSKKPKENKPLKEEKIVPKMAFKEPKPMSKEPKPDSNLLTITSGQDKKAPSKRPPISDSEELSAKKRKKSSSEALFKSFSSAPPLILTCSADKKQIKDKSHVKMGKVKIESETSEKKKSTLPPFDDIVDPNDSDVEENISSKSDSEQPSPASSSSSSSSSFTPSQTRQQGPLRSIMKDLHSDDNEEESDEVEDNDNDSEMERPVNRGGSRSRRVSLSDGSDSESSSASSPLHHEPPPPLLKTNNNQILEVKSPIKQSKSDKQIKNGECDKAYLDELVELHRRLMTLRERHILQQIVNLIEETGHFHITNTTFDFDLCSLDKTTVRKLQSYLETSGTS

Structure (SMILES) | AC50
CC(=O)OCCNc1cc(N2CCN(C)CC2)c2noc3c2c1C(=O)c1ccccc1-3 | 1.94 µM
N=C(N)c1ccc(/C=C/c2ccc(C(=N)N)cc2O)cc1 | 3.33 µM
CN1\C(=C/C=C/C=C/C=[N+](C)C)C(C)(C)c2ccccc21 | 9.97 µM
CN(C)c1cccc2c(C=C(C#N)C#N)ccc(N(C)C)c12 | 1.04 µM
C[C@H](CO)N1C[C@H](C)[C@@H](CN(C)Cc2ccc(Cl)c(Cl)c2)Oc2ccc(N(C)C)cc2CC1=O | 10.8 µM
Cc1cc(N=Nc2ccc3ccccc3c2)ccc1O | 9.43 µM
COc1cccc2sc(N(CCCN(C)C)C(=O)c3ccc(S(=O)(=O)N4CCCc5ccccc54)cc3)nc12 | 4.68 µM
COc1ccc(NC2=C(NCCO)C(=O)c3ccccc3C2=O)cc1 | 4.37 µM
C#CCOCCOCCOCCNc1nc(N2CCN(C(=O)[C@H](CCCN=C(N)N)n3cc(C(N)[C@@H](C)CC)nn3)CC2)nc(N2CCN(C(=O)[C@H](CCCCN)n3cc([C@@H](N)[C@H](C)CC)nn3)CC2)n1 (some centres undefined) | 3.6 µM
CN(C)c1ccc(Nc2nc(N)c3ccccc3n2)cc1 | 7.47 µM
C[n+]1c(-c2ccc(C=NNC(=O)c3ccc(C(=O)NN=Cc4ccc(-c5cn6ccccc6[n+]5C)cc4)cc3)cc2)cn2ccccc21 | 0.804 µM
COc1cc(NCCCCCCN)c2ncccc2c1OC | 2.62 µM
COc1ccc(C(CCNCc2ccc(N(C)C)cc2)C(C)C)cc1 (centres undefined) | 2.88 µM
CN(C)CCCNC(=S)NCC(c1ccc(Cl)cc1Cl)c1c[nH]c2ccccc12 (centres undefined) | 10.7 µM
CN(C)c1ccc(/C=C/C=C/c2sc3ccccc3[n+]2C)cc1 | 2.09 µM
CN[C@H]1C[C@H]2c3[nH]c4ccc(-c5cccc(C)c5)cc4c3CCN2C[C@H]1[C@H](C)O | 6.97 µM
CC(=NNC(=S)N1CCN(C2CCCCCC2)CC1)c1ccccn1 | 0.687 µM
COC(=O)c1ccc2nc(C)cc(Nc3ccc(N(C)C)cc3)c2c1 | 4.41 µM

Structure (SMILES) | AC50
COc1ccccc1C(CCNCc1ccc(N(C)C)cc1)c1ccc(OC(C)C)cc1 (centres undefined) | 3.3 µM
O=C(/C(=N/N=C/c1ccc(O)c(O)c1)c1ccccc1)c1ccccc1 | 1.62 µM
Oc1cc(Nc2cccnc2)cc2cccnc12 | 6.03 µM
Oc1c(C(c2ccccn2)N2CCCCC2)cc(Cl)c2cccnc12 (centres undefined) | 1.84 µM
CCN(CC)c1ccc(/C=C/c2ccc3ccc(OC)cc3[n+]2CC)cc1 | 2.36 µM
COc1ccc(C2CC(=O)Oc3c(C(CCN4CCCC(C)C4)c4ccc(N(C)C)cc4)c(OC)cc(OC)c32)cc1 (centres undefined) | 0.68 µM
Cc1[nH]c2ccccc2c1N=Nc1ccccc1F | 10.2 µM
CCN(CC)c1ccc(N=C2C(=O)Nc3ccccc32)cc1 | 2.77 µM
O=C1c2ccccc2-c2onc3ccc(N4CCCC4)c1c23 | 5.49 µM
N=C1C=CC(=C(c2ccc(N)cc2)c2ccc(N)cc2)C=C1 | 6.08 µM
O=C(O)CCCNc1cc(N2CCN(C(=O)c3ccco3)CC2)c2noc3c2c1C(=O)c1ccccc1-3 | 10.6 µM
c1ccc2c(NCCc3c[nH]c4ccccc34)c3ccccc3nc2c1 | 5.9 µM
Oc1ccc(O)c(C=NNC(=S)NC2CC3CC2C2C=CCC32)c1 (centres undefined) | 8.16 µM
CCn1c(-c2ccccc2)csc1=Nc1ccc(O)cc1 | 6.97 µM
CC1NC(=O)NC1CCCCCC(=O)Nc1ccc(F)cc1 (centres undefined) | < 0.08 µM
CCOC(=O)c1c(-c2ccc(-c3ccccc3)cc2)csc1NC(=O)CNCCN(C)C | 5.86 µM
COc1ccc(C#Cc2ccc3c(c2)[C@H]2[C@H](CCN2C(=O)c2ccncc2)[C@@H](CO)N3)cc1 | 10.7 µM

same assay, conditions: biochemical protein-protein interaction assay, at 10 µM (top of the series)

Structure (SMILES) | activity change, negative = inhibition
COc1cc(/C=N/N=C(N)N)ccc1OCc1ccc(Cl)cc1 | inactive
Cc1cc2c(OCC(O)CNC3CCCCC3)cccc2[nH]1 (centres undefined) | inactive
O=C(NC1CCCCC1)C(c1cccnc1)N(C(=O)CCl)c1cccc(Cl)c1 (centres undefined) | inactive
CCC(=O)N(C)C[C@H]1Oc2cc(C#Cc3ccncc3)ccc2S(=O)(=O)N([C@@H](C)CO)C[C@@H]1C | inactive
C(=C\c1ccncc1)/c1ccncc1 | inactive
NC(=O)C1CCN(C2=C(NS(=O)(=O)c3ccc(Br)cc3)C(=O)c3ccccc3C2=O)CC1 | inactive
COc1cc(OC)c2c(-c3ccccc3)cc(=O)oc2c1C(CCN1CCOCC1)c1ccc(N(C)C)cc1 (centres undefined) | inactive
O=C(NCCCN1CCCC1=O)C1CCN(S(=O)(=O)c2cccc(C(F)(F)F)c2)CC1 | inactive
CCOc1cc(N2CCOCC2)c(OCC)cc1NC(=O)c1ccc2ccccc2n1 | inactive
Cc1cc2c(=Cc3ccc(N(C)C)cc3)c3ccccc3n2[n+]1C | inactive
Cc1csc(Nc2ccccc2)[n+]1-c1ccccc1 | inactive
COc1ccc(C)cc1Nc1n[n+](-c2ccccc2)c(-c2c(Cl)cccc2Cl)s1 | inactive
C/C(=N\Nc1nc2ccccc2[nH]1)c1ccc2c(c1)OCO2 | inactive
Cc1cc(/C=N/n2c(COc3ccccc3C)nc3ccccc3c2=O)c(O)c([N+](=O)[O-])c1 | inactive
S=C(c1ccc(-c2cccc(Cl)c2)o1)N1CCOCC1 | inactive
c1cc2c3c(cccc3c1)NC(c1ccc3c(c1)OCO3)N2 | inactive
COc1cc2c(cc1N)-c1ccc(N)cc1C2=O | inactive

Structure (SMILES) | activity change, negative = inhibition
COc1ccc(N2CCN(C(=O)C3CCCN(S(=O)(=O)c4c(C)noc4C)C3)CC2)cc1 (centres undefined) | inactive
Cc1ccc2nc(-c3ccccn3)c(NC3CCCC3)n2c1 | inactive
O=C(Nc1cccc(CNCCc2c[nH]c3ccccc23)c1)c1ccccc1Cl | inactive
Nc1[nH]n(-c2ccccc2)c(=O)c1N=Nc1ccc2c(c1)OCCO2 | inactive
Cc1[nH]n(-c2ccccc2)c(=O)c1N=Nc1c(O)cc(S(=O)(=O)N(C)C)c2ccccc12 | inactive
CSCCC(c1nnnn1C1CCCCC1)N1CCC(n2c(=O)[nH]c3ccccc32)CC1 (centres undefined) | inactive
O=S(=O)(c1ccc(Cl)cc1)N1CCN(Cc2ccc(O)c3ncccc23)CC1 | inactive
COc1ccccc1Nc1c2c(nc3ccc(N)cc13)CCCC2 | inactive
O=[N+]([O-])c1cc(/C=N/Nc2nc3ccccc3[nH]2)c(O)cc1O | inactive
CN(C)c1ccnc2c[cH-]cc12.[Fe].c1ccc(-[c-]2[c-](-c3ccccc3)[c-](-c3ccccc3)[c-](-c3ccccc3)[c-]2-c2ccccc2)cc1 (centres undefined) | inactive
CCOc1ccc(NC(=S)N(CCN2CCOCC2)Cc2ccc3c(c2)CCCN3CC)cc1 | inactive
C[C@H](CO)N1C[C@H](C)[C@H](CN(C)Cc2ccc(Cl)c(Cl)c2)Oc2ccc(N(C)C)cc2C1=O | inactive
CC(C)C[C@@H](C(=O)NC1CCN(Cc2ccccc2)CC1)N1C(=O)N2CCc3c([nH]c4ccccc34)[C@@]2(C)C1=O | inactive
Cn1cc(C(=O)N/N=C/c2c(O)ccc3ccccc23)ccc1=O | inactive
Cc1cc2c(cc1C)N[C@]1(C[C@H]3CCCC(=O)N4CC[C@@H](C1)[C@@H]34)C(=NC(C)(C)CC(C)(C)C)N2 | inactive
CC(=O)c1ccc(OCC(=O)Nc2ccc(N3CCCCC3)cc2)cc1 | inactive
CC(=Nc1ccc(C)cc1C)c1sc2ccccc2c1O | inactive
